According to patent US20060111305A1, “Metabolites of certain [1,4]diazepino[6,7,1-ij]quinoline derivatives and methods of preparation and use thereof” (Wyeth, priority 2004, published 2006):

How the values were obtained:
[1] = Metabolites of DCDQ identified in rats by LC/MS analysis (Table 18); assay type: in vivo, Sprague-Dawley rats; details: P = plasma, U = urine, B = brain, F = feces
Protocol: An Agilent Model 1100 HPLC system (Agilent Technologies, Wilmington, Del.) including an autosampler and diode array UV detector was used for LC/MS analysis of plasma and urine samples. The UV detector was set to monitor 200 to 400 nm. For selected LC/MS analyses, radiochromatograms were acquired using a β-Ram model 3 radioactivity flow detector (IN/US Systems Inc., Tampa, Fla.) equipped with a solid scintillant flow cell. Fecal samples were also analyzed using a Waters Alliance model 2690 HPLC system. It was equipped with a built-in autosampler and a model 996 diode array UV detector set to 210-350 nm. The HPLC flow was split between a Radiomatic model 150TR flow scintillation analyzer (Perkin Elmer) and the mass spectrometer. Other HPLC conditions were the same as condition B described above.
The mass spectrometer used for metabolite characterization for plasma and urine was a Micromass Q-TOF-2 quadrupole time-of-flight hybrid mass spectrometer (Waters). The mass spectrometer was equipped with an electrospray ionization (ESI) interface and operated in the positive ionization mode. Collision energy settings of 5 and 30 eV were used for full MS and MS/MS scans, respectively. Settings for the mass spectrometer are listed below.
A Micromass Quattro Micro mass spectrometer (Waters) was also used to analyze the fecal samples. It was equipped with an electrospray ionization (ESI) interface and operated in the positive ionization mode. Settings for the mass spectrometer are listed below.
LC/MS/MS in the selected reaction-monitoring (SRM) mode (LC/SRM) was conducted with the triple quadruple mass spectrometer to monitor DCDQ and its metabolites in fecal samples. The transitions monitored are listed below.

[2] = Incubation of [14C]DCDQ with human liver microsomes (Km values, metabolite formation); assay type: in vitro ADME; details: for metabolite detected in microsomal incubation: human
Protocol: (§1) [^14C]DCDQ was mixed with non-radiolabeled DCDQ (1:3 or 1:5) in the incubations. Microsomal incubations consisted of [^14C]DCDQ, magnesium chloride (10 mM) and liver microsomes incubated in 0.5 mL of 0.1 M potassium phosphate buffer, pH 7.4. [^14C]DCDQ (20 μL) in water was added to the incubation tubes containing buffer, magnesium chloride solution and microsomes. After mixing, the tubes were pre-incubated for 2 minutes in a shaking water bath at 37° C. The reactions were initiated by the addition of UDPGA or the NADPH regenerating system. UDPGA was added to incubations as a 50 μL aliquot of a 20 mM solution in water, to give a final concentration of 2 mM. An NADPH regenerating system (30 μL) was added to incubations to evaluate CYP450-mediated metabolism. The NADPH regenerating system consisted of glucose-6-phosphate (2 mg/mL), glucose-6-phosphate dehydrogenase (0.8 units/mL) and NADP^+ (2 mg/mL). Control incubations were conducted under the same conditions, but without the NADPH generating system, UDPGA or microsomes. All incubations were performed in duplicate. Incubations were stopped by the addition of 0.5 mL ice-cold methanol. Samples were vortex-mixed. Denatured proteins were separated by centrifugation at 4300 rpm and 4° C. for 10 minutes (Model T21 super centrifuge, Sorvall). The protein pellets were extracted with 0.5 mL of methanol. The supernatant was combined for each sample, mixed and evaporated to a volume of about 0.3 mL under a nitrogen stream in a Zymark TurboVap LV evaporator (Caliper Life Science, Hopkinton, Mass.). The concentrated sample was centrifuged and aliquots were radioassayed and analyzed by HPLC. This method recovered an average of 92.1% of the radioactivity from the reaction mixture.
(§2) Initial rate conditions were determined for DCDQ metabolism in incubations with human liver microsomes in the presence of NADPH or UDPGA. Incubations for the time course study contained 20 μM of [^14C]DCDQ and 0.5 mg/mL of microsomal proteins, and were incubated at 37° C. with mild shaking for 0, 5, 10, 20, 30, 40, 50 and 60 minutes. The protein dependence study was conducted with 20 μM of [^14C]DCDQ incubated for 20 minutes with 0, 0.1, 0.25, 0.5, 0.75 and 1.0 mg/mL of microsomal proteins.
(§3) The Km values were determined with 0.5 mg/mL of human liver microsomes incubated with [^14C]DCDQ for 20 minutes with the NADPH regenerating system or for 10 minutes with UDPGA. [^14C]DCDQ concentrations used were 0.5,1, 5, 10, 25, 50, 75 and 100 μM.
(§4) To evaluate species differences in cytochrome P450- and UGT-mediated metabolism, [^14C]DCDQ was incubated for 20 minutes with 0.5 mg/mL liver microsomal proteins from mice, rats, dogs or humans in the presence of the NADPH regenerating system or UDPGA. The assay conditions were the same as described above, and DCDQ concentrations were 12 μM and 56 μM for cytochrome P450- and UGT-mediated metabolism, respectively.
(§5) A Waters model 2690 HPLC system (Waters Corp., Milford, Mass.) with a built-in autosampler was used for analysis. Separations were accomplished on a Phenomenex Luna C18(2) column (2×150 mm, 5 μm) (Phenomenex, Torrance, Calif.) coupled with a filter (4×2 mm) cartridge. A variable wavelength UV detector set to monitor 250 nm and Flo-One β Model A525 radioactivity flow detector (Perkin Elmer) with a 250 μL LQTR flow cell were used for data acquisition. The flow rate of Ultima Flow M scintillation fluid was 1 mL/min, providing a mixing ratio of scintillation cocktail to mobile phase of 5:1. The sample chamber in the autosampler was maintained at 4° C., while the column was at ambient temperature of about 20° C. The mobile phase consisted of 10 mM ammonium acetate, pH 4.5 (A) and methanol (B) and was delivered at 0.2 mL/min. The linear gradient conditions were as follows: […]

[3] = tested on: cytochrome P450 (NADPH-dependent metabolism); test: as above; assay type: in vitro ADME; details: pH 7.4; 0.5 mg/mL human liver microsomes, [14C]DCDQ 0.5-100 μM, NADPH regenerating system, 20 min
Protocol: as §1, §2, §3, §4, §5

[4] = NADPH regenerating system, 12 μM DCDQ, 20 min

Matrix [1] | metabolite detected in microsomal incubation [2, 4] | Km at 20 min [3] [µM] | amount of metabolite detected ([2]; human liver microsomes, DCDQ 20 μM, both NADPH and UDPGA) | metabolite detected in microsomal incubation ([2]; UDPGA, 56 μM DCDQ) | Structure (SMILES)
P, U, B | detected | 10.8 |  |  | OC1CN2C[C@@H]3CCC[C@@H]3c3cccc(c32)CN1 (stereo partly drawn) [Metabolite M1, hydroxy DCDQ]
P, U | detected | 8.9 to 13.8 |  |  | OC1[C@@H]2CCC[C@@H]2c2cccc3c2N1CCNC3 (stereo partly drawn) [Metabolite M2, hydroxy DCDQ]
 | detected | 36.2 |  |  | [O-][N+]12CCN=Cc3cccc(c31)[C@H]1CCC[C@H]1C2 (stereo partly drawn) [Metabolite M5, DCDQ imine N-oxide]
 |  |  | only minor amounts | detected | O=C(O)[C@H]1O[C@@H](OC(=O)N2CCN3C[C@@H]4CCC[C@@H]4c4cccc(c43)C2)[C@H](O)[C@@H](O)[C@@H]1O [Metabolite M6, carbamoyl glucuronide of DCDQ]
P, U, B |  |  |  |  | O=C1CC[C@@H]2c3cccc4c3N(CCNC4)C[C@H]12 [Metabolite M7, 17-keto DCDQ]

Structure (SMILES) | Matrix [1] | metabolite detected in microsomal incubation [2, 4] | Km at 20 min [3] [µM] | amount of metabolite detected ([2]; human liver microsomes, DCDQ 20 μM, both NADPH and UDPGA) | metabolite detected in microsomal incubation ([2]; UDPGA, 56 μM DCDQ)
c1cc2c3c(c1)[C@H]1CCC[C@H]1CN3CCNC2 [DCDQ, (9aR,12aS)-4,5,6,7,9,9a,10,11,12,12a-decahydro-cyclopenta[c][1,4]diazepine[6,7,1-ij]quinoline, reference compound] | P, U, F |  |  |  | 
